Assay results: ChEMBL document CHEMBL5537212, “Benzodioxane Carboxamide Derivatives As Novel Monoamine Oxidase B Inhibitors with Antineuroinflammatory Activity” (ACS Med Chem Lett, 2024)

Assays:
[1] = biological target: T1, Amine oxidase [flavin-containing] A (Homo sapiens, UniProt P21397)
T1 sequence (P21397 whole entry): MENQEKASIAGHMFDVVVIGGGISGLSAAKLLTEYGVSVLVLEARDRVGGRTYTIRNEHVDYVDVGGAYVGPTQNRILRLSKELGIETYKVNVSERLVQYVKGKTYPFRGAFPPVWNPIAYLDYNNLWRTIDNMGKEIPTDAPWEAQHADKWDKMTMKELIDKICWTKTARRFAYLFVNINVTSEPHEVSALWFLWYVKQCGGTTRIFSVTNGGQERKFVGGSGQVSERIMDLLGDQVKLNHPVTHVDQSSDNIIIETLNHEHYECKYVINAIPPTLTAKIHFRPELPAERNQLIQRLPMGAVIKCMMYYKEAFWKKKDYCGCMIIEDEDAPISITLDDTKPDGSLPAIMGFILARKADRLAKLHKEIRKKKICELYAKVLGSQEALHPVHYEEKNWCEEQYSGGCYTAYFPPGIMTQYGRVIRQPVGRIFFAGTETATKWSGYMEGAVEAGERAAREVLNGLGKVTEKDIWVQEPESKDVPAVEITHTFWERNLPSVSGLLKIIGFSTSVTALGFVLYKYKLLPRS
Description: Inhibition of recombinant human MAO-A incubated for 15 mins by Amplex Red reagent and horseradish peroxidase based fluorescence microplate reader analysis

[2] = biological target: T2, Amine oxidase [flavin-containing] B (Homo sapiens, UniProt P27338); test: Inhibition of recombinant human MAO-B using benzylamine as substrate at 1 uM incubated for 20 mins by fluorescence microplate reader analysis relative to control; conditions: read-out: INH
T2 sequence (P27338 whole entry): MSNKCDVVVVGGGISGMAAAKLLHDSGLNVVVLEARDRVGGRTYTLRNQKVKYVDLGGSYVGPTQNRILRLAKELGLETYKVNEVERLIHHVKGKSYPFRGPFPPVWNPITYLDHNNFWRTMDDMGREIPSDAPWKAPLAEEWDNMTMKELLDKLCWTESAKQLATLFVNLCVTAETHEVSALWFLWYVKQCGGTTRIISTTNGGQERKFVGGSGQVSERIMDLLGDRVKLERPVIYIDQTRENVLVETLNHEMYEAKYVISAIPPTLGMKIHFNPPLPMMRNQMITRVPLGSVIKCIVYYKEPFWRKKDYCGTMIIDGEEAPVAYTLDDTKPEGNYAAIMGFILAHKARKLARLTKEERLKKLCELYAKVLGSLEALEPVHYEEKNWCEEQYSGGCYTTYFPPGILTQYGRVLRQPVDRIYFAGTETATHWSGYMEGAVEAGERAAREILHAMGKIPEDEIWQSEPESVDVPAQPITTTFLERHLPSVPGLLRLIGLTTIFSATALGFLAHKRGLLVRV

[3] = biological target: T1, Amine oxidase [flavin-containing] A; test: Inhibition of recombinant human MAO-A at 0.1 uM incubated for 15 mins by Amplex Red reagent and horseradish peroxidase based fluorescence microplate reader analysis relative to control; conditions: 0.25 h

SMILES | IC50 [1] | inhibition at 1 µM [2] | inhibition at 0.1 µM [3]
O=C(Nc1ccccc1)c1ccc2c(c1)OCO2 | > 40 µM | < 5% | –
COc1ccc(NC(=O)c2ccc3c(c2)OCCO3)cc1OC | > 40 µM | < 5% | –
COc1cccc(NC(=O)c2ccc3c(c2)OCCO3)c1 | > 40 µM | 19.7% | –
O=C(NCc1ccccc1)c1ccc2c(c1)OCCO2 | > 40 µM | < 5% | –
O=C(Nc1cccc(Cl)c1)c1ccccc1 | > 40 µM | < 5% | –
O=C(Nc1ccc2c(c1)OCCO2)c1ccc(Cl)c(Cl)c1 | > 40 µM | 30.8% | –
O=C(Nc1ccccc1Cl)c1ccc2c(c1)OCCO2 | > 40 µM | < 5% | –
O=C(Nc1cccc(Cl)c1Cl)c1ccc2c(c1)OCCO2 | > 40 µM | 53% | –
O=C(Nc1ccc2c(c1)OCCO2)c1ccc2c(c1)OCCO2 | > 40 µM | 36.1% | –
COc1ccc(NC(=O)c2ccc3c(c2)OCCO3)cc1Cl | > 40 µM | 27.4% | –
COc1ccc(NC(=O)c2ccc3c(c2)OCCO3)cc1 | > 40 µM | < 5% | –
O=C(Nc1ccc2[nH]ncc2c1)c1ccc2c(c1)OCCO2 | > 40 µM | 13.8% | –
O=C(Nc1ccccc1F)c1ccc2c(c1)OCCO2 | > 40 µM | 19.1% | –
O=C(Nc1ccc(Br)cc1)c1ccc2c(c1)OCCO2 | > 40 µM | – | –
O=C(Nc1ccc(Cl)c(Cl)c1)c1ccccc1 | > 40 µM | 40.2% | –
C#CCN(C)CCCOc1ccc(Cl)cc1Cl [CLORGILINE] | – | – | 79.9%
O=C(Nc1ccccc1)c1ccccc1 [N-PHENYLBENZAMIDE] | > 40 µM | < 5% | –
